# Columns and labels:
# [1] = system: Enterococcus faecalis ATCC 29212 biofilm; test: Activity against biofilms formed on polystyrene 96-well plates, 24 h exposure, resazurin; format: cell-based; conditions: polystyrene plate, 24 h exposure in MHB II; for MBEC 50: lowest concentration reducing metabolic activity by at least 50 ± 5%
# Method: (§1) Bacterial strains were obtained from the Polish Collection of Microorganisms (Polish Academy of Science, Wroclaw, Poland). […] The bacteria were cultured in a Mueller Hinton Broth II (MHB, Biocorp, Warsaw, Poland) overnight, under aerobic conditions at 37 °C. After incubation, the liquid cultures were centrifuged (2500 rpm for 10 min) and washed with phosphoric buffer (PBS, AppliChem, Darmstadt, Germany) three times and resuspended in fresh MHB II for inoculums appropriate for the performed assays.
# (§2) Bacterial suspensions were added to 96-well plates (Kartell, Noviglio, Italy) at initial inoculums of ca. 5 × 10^8 CFU/mL and incubated under aerobic conditions with shaking (120 rpm) at 37 °C for 24 h. […] After exposure, the wells were washed three times with PBS and a solution of resazurin (Sigma Aldrich, St. Louis, MO, USA) in MHB II (0.01%) was added. This cell viability reagent is metabolized by bacterial dehydrogenases upon contact with living cells. As a result, the blue dye is reduced to a pink resorufin. After 1.5 h of incubation, the absorbance was measured at 570 and 600 nm using a microplate reader (Thermo Fisher Scientific, Waltham, MA, USA). […] The metabolic activity of bacteria in the samples was measured according to the following formula:
# (§3) Metabolic activity (%) = (ΔAbs of sample − ΔAbs of negative control)/(ΔAbs of positive control − ΔAbs of negative control);
# (§4) ΔAbs = absorbance at 570 nm − absorbance at 600 nm;
# (§5) The presented results are the means of nine results obtained on three different days.
# [2] = system: Escherichia coli ATCC 25922 biofilm; test: as above; format: cell-based; conditions: polystyrene plate, 24 h exposure in MHB II; for MBEC 50: lowest concentration reducing metabolic activity by at least 50 ± 5%
# Method: as §1, §2, §3, §4, §5
# [3] = system: Pseudomonas aeruginosa ATCC 9027 biofilm; test: as above; format: cell-based; conditions: for MBEC 50: lowest concentration reducing metabolic activity by at least 50 ± 5%; for MBEC 50 / MBEC 90: polystyrene plate, 24 h exposure in MHB II, resazurin; for MBEC 90: lowest concentration reducing metabolic activity by at least 90 ± 5%, mean of nine results
# Method: as §1, §2, §3, §4, §5
# [4] = system: Staphylococcus epidermidis ATCC 14990 biofilm; test: as above; format: cell-based; conditions: for MBEC 50: lowest concentration reducing metabolic activity by at least 50 ± 5%; for MBEC 50 / MBEC 90: polystyrene plate, 24 h exposure in MHB II, resazurin; for MBEC 90: lowest concentration reducing metabolic activity by at least 90 ± 5%, mean of nine results
# Method: as §1, §2, §3, §4, §5
# [5] = system: Staphylococus aureus ATCC 6538 biofilm; test: as above; format: cell-based, Staphylococcus aureus; conditions: polystyrene plate, 24 h exposure in MHB II, resazurin; for MBEC 50: lowest concentration reducing metabolic activity by at least 50 ± 5%; for MBEC 90: lowest concentration reducing metabolic activity by at least 90 ± 5%, mean of nine results
# Method: as §1, §2, §3, §4, §5
# [6] = system: Staphylococus aureus ATCC 6538 biofilm; test: Activity against biofilms on 96-well plates after withdrawal of the antimicrobial (additional 24 h in MHB II); format: cell-based, Staphylococcus aureus; conditions: after withdrawal and additional 24 h in MHB II; for MBEC II 50: lowest concentration giving permanent reduction of metabolic activity by at least 50 ± 5%; for MBEC II 90: lowest concentration giving permanent reduction of metabolic activity by at least 90 ± 5%
# Method: (§6) Bacterial strains were obtained from the Polish Collection of Microorganisms (Polish Academy of Science, Wroclaw, Poland). Three Gram-positive and two Gram-negative strains linked with CL-related infections were chosen for the study (Staphylococus aureus ATCC 6538, Staphylococcus epidermidis ATCC 14990, Pseudomonas aeruginosa ATCC 9027, Escherichia coli ATCC 25922, and Enterococcus faecalis ATCC 29212). The bacteria were cultured in a Mueller Hinton Broth II (MHB, Biocorp, Warsaw, Poland) overnight, under aerobic conditions at 37 °C. […] Bacterial suspensions were added to 96-well plates (Kartell, Noviglio, Italy) at initial inoculums of ca. 5 × 10^8 CFU/mL and incubated under aerobic conditions with shaking (120 rpm) at 37 °C for 24 h. […] After exposure, the wells were washed three times with PBS and a solution of resazurin (Sigma Aldrich, St. […] This cell viability reagent is metabolized by bacterial dehydrogenases upon contact with living cells. As a result, the blue dye is reduced to a pink resorufin. After 1.5 h of incubation, the absorbance was measured at 570 and 600 nm using a microplate reader (Thermo Fisher Scientific, Waltham, MA, USA). […] The procedure was conducted as described in Section 4.3, with the difference that after exposure to antimicrobials, the wells were washed three times with PBS and pure MHB II was added. The samples were incubated for another 24 h (aerobic conditions, 120 rpm shaking, 37 °C). […] The absorbance was measured at the same wave lengths and metabolic activity was calculated according to the formula given in Section 4.3. The presented results are means of nine results obtained on three different days.
# [7] = system: Enterococcus faecalis ATCC 29212 biofilm; test: as above; format: cell-based; conditions: after withdrawal and additional 24 h in MHB II
# Method: as §6
# [8] = system: Escherichia coli ATCC 25922 biofilm; test: as above; format: cell-based; conditions: after withdrawal and additional 24 h in MHB II
# Method: as §6
# [9] = system: Pseudomonas aeruginosa ATCC 9027 biofilm; test: as above; format: cell-based; conditions: for effect of pretreatment on biofilm after withdrawal: PA biofilm on polystyrene, concentrations lower than 32 mg/L, after withdrawal and additional 24 h
# Method: as §6
# [10] = system: Staphylococcus epidermidis ATCC 14990 biofilm; test: as above; format: cell-based; conditions: after withdrawal and additional 24 h in MHB II; for MBEC II 50: lowest concentration giving permanent reduction of metabolic activity by at least 50 ± 5%; for MBEC II 90: lowest concentration giving permanent reduction of metabolic activity by at least 90 ± 5%
# Method: as §6
# [11] = system: human cells (keratinocytes, erythrocytes); conditions: cited from earlier work
# Source text: PA was also the most difficult strain to eliminate from the surface of CL in the previous study, in which we investigated amphibian peptides and short lipopeptides containing hexadecanoic acid according to their potential application as CL solution additives. The results of performed antimicrobial assays were also very promising. However, due to high toxicity towards human keratinocytes in vitro, the ocular applications of lipopeptides with hexadecanoic acid are not worth further consideration. In contrast to those lipopeptides, the compound with two residues of decanoic aci ... || The excellent antimicrobial activity was previously reported for many lipopeptides. This, along with the relatively low production costs, has encouraged many research groups to study their antimicrobial activities and design molecules with optimal properties. C16-KK-NH2 is one of such extensively studied compounds. […] Other derivatives ...
# [12] = lowest concentration reducing metabolic activity by at least 90 ± 5%, mean of nine results
# [13] = lowest concentration giving permanent reduction of metabolic activity by at least 50 ± 5%
# [14] = lowest concentration giving permanent reduction of metabolic activity by at least 90 ± 5%
Compound,MBEC 50 [1] [mg/L],MBEC 50 [2] [mg/L],MBEC 50 [3] [mg/L],MBEC 90 [3] [mg/L],MBEC 50 [4] [mg/L],MBEC 90 [4] [mg/L],MBEC 50 [5] [mg/L],MBEC 90 [5] [mg/L],MBEC II 50 [6] [µg/mL],MBEC II 90 [6] [µg/mL],effect of pretreatment on biofilm after withdrawal [9],MBEC II 50 [10] [µg/mL],MBEC II 90 [10] [µg/mL],also measured
O=C(N[C@H](CO)[C@H](O)c1ccc([N+](=O)[O-])cc1)C(Cl)Cl [Chloramphenicol],32,8,4,128,32,256,128,>256,>256,>256,significant promotion of biofilm growth,>256,>256,"MBEC 90 [1, 12]: >256 mg/L; MBEC 90 [2, 12]: 16 mg/L; reduction of metabolic activities ([3]; PA biofilm on polystyrene, 24 h exposure, 32–64 mg/L): ~70%; metabolic activity of bacteria ([4]; SE biofilm on polystyrene, 24 h exposure, 64 mg/L): ~25%; MBEC II 50 [7, 13]: >256 µg/mL; MBEC II 90 [7, 14]: >256 µg/mL; MBEC II 50 [8, 13]: >256 µg/mL; MBEC II 90 [8, 14]: >256 µg/mL; MBEC II 50 ([9]; lowest concentration giving permanent reduction of metabolic activity by at least 50 ± 5%, after withdrawal and additional 24 h in MHB II): 256 µg/mL; MBEC II 90 ([9]; lowest concentration giving permanent reduction of metabolic activity by at least 90 ± 5%, after withdrawal and additional 24 h in MHB II): >256 µg/mL"
C16-KK-NH2,,,,,,,,,,,,,,toxicity towards human cells [11]: high toxicity
neomycin (sulfate),64,8,8,64,≤1,16,4,64,64,64,enhanced metabolism of bacteria in comparison to the positive control,8,16,"reduction of metabolic activity ([3]; PA biofilm on polystyrene, 24 h exposure, 32 mg/L): 75%; concentration giving a permanent antibiofilm effect ([10]; SE biofilm on polystyrene): 16 mg/L"
